Laboratory results: ChEMBL document CHEMBL4806963, “Antagonistic peptides for frizzled-1 and frizzled-2” (2013)
Calls of active or inactive are those of the source. The calls are words filed in the database; no cut-off is given here. Where a SMILES comes first, the peptide text is derived from it. Bridges are numbered along the chain shown (N, C = ends).

Columns and labels:
[1] = target: Frizzled-5 (Homo sapiens) (UniProt Q13467); test: Agonist activity at frizzled-5 (unknown origin) expressed in human HEK293superTOP flash cells by luciferase reporter gene assay; type: functional, cell-based; conditions: HEK293
[2] = target: T1, Frizzled-4 (Homo sapiens) (UniProt Q9ULV1); test: Agonist activity at frizzled-4 (unknown origin) expressed in human HEK293superTOP flash cells by luciferase reporter gene assay; type: functional, cell-based; conditions: HEK293
T1 sequence (whole entry): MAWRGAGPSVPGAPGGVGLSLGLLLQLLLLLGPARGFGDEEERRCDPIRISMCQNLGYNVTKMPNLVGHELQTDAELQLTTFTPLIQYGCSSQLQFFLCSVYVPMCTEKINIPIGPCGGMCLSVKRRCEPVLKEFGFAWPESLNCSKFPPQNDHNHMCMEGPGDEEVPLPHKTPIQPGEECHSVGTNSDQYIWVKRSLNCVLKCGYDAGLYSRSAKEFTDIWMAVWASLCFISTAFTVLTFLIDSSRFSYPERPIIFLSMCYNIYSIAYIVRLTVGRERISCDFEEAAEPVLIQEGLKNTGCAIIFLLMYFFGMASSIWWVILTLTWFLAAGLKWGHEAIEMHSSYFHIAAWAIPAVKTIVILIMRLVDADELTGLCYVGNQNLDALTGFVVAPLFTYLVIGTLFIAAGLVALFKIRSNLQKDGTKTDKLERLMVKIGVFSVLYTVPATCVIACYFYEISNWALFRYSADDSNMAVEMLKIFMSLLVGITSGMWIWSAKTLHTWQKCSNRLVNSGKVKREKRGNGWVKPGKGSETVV

[3] = target: Frizzled-2 (Rattus norvegicus) (UniProt Q08464); test: Agonist activity at rat frizzled-2 expressed in African green monkey COS7 cells by luciferase reporter gene assay; type: cell-based
[4] = target: Frizzled-2 (Rattus norvegicus) (UniProt Q08464); test: Agonist activity at rat frizzled-2 expressed in human HEK293superTOP flash cells by luciferase reporter gene assay; type: cell-based; conditions: HEK293
[5] = target: Frizzled-2 (Rattus norvegicus) (UniProt Q08464); test: Antagonist activity at Wnt3a-stimulated rat frizzled-2 expressed in CHO cells incubated for 24 hrs by luciferase reporter gene assay relative to control; type: cell-based; conditions: filed as antagonist, concentration not given here
[6] = target: Frizzled-2 (Rattus norvegicus) (UniProt Q08464); test: Antagonist activity at Wnt3a-stimulated rat frizzled-2 expressed in human HEK293superTOP flash cells at 10 nM incubated for 24 hrs by luciferase reporter gene assay relative to control; type: cell-based; conditions: HEK293, filed as antagonist
[7] = target: Frizzled-1 (Rattus norvegicus) (UniProt Q08463); test: Antagonist activity at Wnt3a-stimulated rat frizzled-1 expressed in CHO cells incubated for 24 hrs by luciferase reporter gene assay relative to control; type: cell-based; conditions: filed as antagonist, concentration not given here
[8] = target: Frizzled-1 (Rattus norvegicus) (UniProt Q08463); test: Antagonist activity at Wnt3a-stimulated rat frizzled-1 expressed in human HEK293superTOP flash cells at 10 nM incubated for 24 hrs by luciferase reporter gene assay relative to control; type: cell-based; conditions: HEK293, filed as antagonist
[9] = target: Frizzled-1 (Rattus norvegicus) (UniProt Q08463); test: Agonist activity at rat frizzled-1 expressed in CHO cells by luciferase reporter gene assay; type: cell-based
[10] = target: Frizzled-2 (Rattus norvegicus) (UniProt Q08464); test: Antagonist activity at Wnt3a-stimulated rat frizzled-2 expressed in African green monkey COS7 cells incubated for 24 hrs by luciferase reporter gene assay relative to control; type: cell-based; conditions: filed as antagonist, concentration not given here
[11] = target: Frizzled-1 (Rattus norvegicus) (UniProt Q08463); test: Agonist activity at rat frizzled-1 expressed in African green monkey COS7 cells by luciferase reporter gene assay; type: cell-based
[12] = target: Frizzled-2 (Rattus norvegicus) (UniProt Q08464); test: Agonist activity at rat frizzled-2 expressed in CHO cells by luciferase reporter gene assay; type: cell-based
[13] = target: Frizzled-1 (Rattus norvegicus) (UniProt Q08463); test: Agonist activity at rat frizzled-1 expressed in human HEK293superTOP flash cells by luciferase reporter gene assay; type: cell-based; conditions: HEK293
[14] = target: Frizzled-1 (Rattus norvegicus) (UniProt Q08463); test: Antagonist activity at Wnt3a-stimulated rat frizzled-1 expressed in African green monkey COS7 cells incubated for 24 hrs by luciferase reporter gene assay relative to control; type: cell-based; conditions: filed as antagonist, concentration not given here
Frizzled-1 = Frizzled-1 (Rattus norvegicus, UniProt Q08463); test: Antagonist activity at Wnt3a-stimulated rat frizzled-1 expressed in human HEK293superTOP flash cells incubated for 24 hrs by luciferase reporter gene assay; type: cell-based, HEK293
Frizzled-2 = Frizzled-2 (Rattus norvegicus, UniProt Q08464); test: Antagonist activity at Wnt3a-stimulated rat frizzled-2 expressed in human HEK293superTOP flash cells incubated for 24 hrs by luciferase reporter gene assay; type: cell-based, HEK293
[15] = target: Frizzled-2 (Homo sapiens) (UniProt Q14332); test: Agonist activity at frizzled-2 (unknown origin) expressed in human HEK293superTOP flash cells by luciferase reporter gene assay; type: functional, cell-based; conditions: HEK293
[16] = target: Frizzled-2 (Homo sapiens) (UniProt Q14332); test: Antagonist activity at Wnt3a-stimulated frizzled-2 (unknown origin) expressed in human HEK293superTOP flash cells incubated for 24 hrs by luciferase reporter gene assay; type: functional, cell-based; conditions: HEK293
[17] = target: Frizzled-1 (Homo sapiens) (UniProt Q9UP38); test: Agonist activity at frizzled-1 (unknown origin) expressed in human HEK293superTOP flash cells by luciferase reporter gene assay; type: functional, cell-based; conditions: HEK293
[18] = target: Frizzled-1 (Homo sapiens) (UniProt Q9UP38); test: Antagonist activity at Wnt3a-stimulated frizzled-1 (unknown origin) expressed in human HEK293superTOP flash cells incubated for 24 hrs by luciferase reporter gene assay; type: functional, cell-based; conditions: HEK293

Sequence of Frizzled-1 (Rattus norvegicus) (Q08463 whole entry): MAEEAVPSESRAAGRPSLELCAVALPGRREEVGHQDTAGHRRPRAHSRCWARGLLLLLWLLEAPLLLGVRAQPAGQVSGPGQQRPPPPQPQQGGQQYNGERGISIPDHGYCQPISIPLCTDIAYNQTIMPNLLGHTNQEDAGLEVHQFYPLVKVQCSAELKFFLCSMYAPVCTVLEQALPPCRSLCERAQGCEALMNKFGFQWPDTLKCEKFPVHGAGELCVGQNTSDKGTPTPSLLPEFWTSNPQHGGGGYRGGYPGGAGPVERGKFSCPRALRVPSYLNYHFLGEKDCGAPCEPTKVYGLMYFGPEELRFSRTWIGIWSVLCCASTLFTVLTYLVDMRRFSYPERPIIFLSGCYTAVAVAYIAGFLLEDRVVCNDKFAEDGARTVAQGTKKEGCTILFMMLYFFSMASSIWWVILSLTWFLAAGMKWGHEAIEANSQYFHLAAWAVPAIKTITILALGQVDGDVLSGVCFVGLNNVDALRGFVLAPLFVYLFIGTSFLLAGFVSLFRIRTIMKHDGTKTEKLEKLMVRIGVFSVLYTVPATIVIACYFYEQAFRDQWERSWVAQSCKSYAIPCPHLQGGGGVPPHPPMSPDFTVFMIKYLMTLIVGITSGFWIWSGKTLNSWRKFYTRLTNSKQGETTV
Sequence of Frizzled-2 (Homo sapiens) (Q14332 24-565 limits assumed): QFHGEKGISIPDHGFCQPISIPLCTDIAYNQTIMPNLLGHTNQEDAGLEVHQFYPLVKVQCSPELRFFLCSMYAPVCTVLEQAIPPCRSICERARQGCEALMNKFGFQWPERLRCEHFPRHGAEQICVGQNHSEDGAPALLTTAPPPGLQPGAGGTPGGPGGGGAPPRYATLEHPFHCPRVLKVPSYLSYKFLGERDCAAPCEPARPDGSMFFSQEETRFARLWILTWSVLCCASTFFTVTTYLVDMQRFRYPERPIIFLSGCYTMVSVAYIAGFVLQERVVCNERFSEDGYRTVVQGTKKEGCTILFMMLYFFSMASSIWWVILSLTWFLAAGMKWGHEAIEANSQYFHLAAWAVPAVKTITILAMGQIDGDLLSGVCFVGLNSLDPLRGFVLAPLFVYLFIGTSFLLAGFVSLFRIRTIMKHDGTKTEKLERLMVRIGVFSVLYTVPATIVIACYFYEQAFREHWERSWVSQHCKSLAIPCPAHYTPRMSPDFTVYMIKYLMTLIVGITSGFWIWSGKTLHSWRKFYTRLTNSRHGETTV
Sequence of Frizzled-1 (Homo sapiens) (Q9UP38 70-647 limits assumed): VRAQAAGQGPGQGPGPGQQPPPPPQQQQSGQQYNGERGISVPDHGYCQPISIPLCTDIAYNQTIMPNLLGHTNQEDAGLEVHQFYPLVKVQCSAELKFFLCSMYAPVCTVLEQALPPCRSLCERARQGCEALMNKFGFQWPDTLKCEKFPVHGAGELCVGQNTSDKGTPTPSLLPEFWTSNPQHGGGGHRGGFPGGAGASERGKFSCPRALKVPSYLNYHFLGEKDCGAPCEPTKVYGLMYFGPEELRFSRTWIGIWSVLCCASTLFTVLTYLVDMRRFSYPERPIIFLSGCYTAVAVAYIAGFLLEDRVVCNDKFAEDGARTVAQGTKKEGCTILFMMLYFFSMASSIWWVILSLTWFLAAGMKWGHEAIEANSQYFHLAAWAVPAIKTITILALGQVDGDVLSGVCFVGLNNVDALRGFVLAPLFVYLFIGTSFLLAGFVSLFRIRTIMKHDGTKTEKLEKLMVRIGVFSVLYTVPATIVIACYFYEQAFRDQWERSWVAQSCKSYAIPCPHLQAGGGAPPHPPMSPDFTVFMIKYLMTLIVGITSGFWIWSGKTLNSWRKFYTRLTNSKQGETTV
Sequence of Frizzled-2 (Rattus norvegicus) (Q08464 29-570 limits assumed): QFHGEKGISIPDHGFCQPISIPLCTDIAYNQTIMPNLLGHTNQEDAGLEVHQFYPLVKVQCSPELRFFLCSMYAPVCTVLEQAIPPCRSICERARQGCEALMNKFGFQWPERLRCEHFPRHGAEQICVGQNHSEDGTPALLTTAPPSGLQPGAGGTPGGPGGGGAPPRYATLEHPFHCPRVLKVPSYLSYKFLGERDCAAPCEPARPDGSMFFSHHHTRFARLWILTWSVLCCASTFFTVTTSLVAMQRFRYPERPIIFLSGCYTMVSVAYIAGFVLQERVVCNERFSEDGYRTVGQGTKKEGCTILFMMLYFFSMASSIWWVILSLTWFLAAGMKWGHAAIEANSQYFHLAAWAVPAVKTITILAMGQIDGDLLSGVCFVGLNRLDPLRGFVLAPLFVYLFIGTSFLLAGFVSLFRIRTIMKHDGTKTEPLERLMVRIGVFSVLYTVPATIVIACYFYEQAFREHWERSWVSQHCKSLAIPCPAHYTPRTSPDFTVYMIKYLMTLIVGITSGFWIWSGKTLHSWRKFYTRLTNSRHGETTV
Sequence of Frizzled-2 (Q08464 whole entry): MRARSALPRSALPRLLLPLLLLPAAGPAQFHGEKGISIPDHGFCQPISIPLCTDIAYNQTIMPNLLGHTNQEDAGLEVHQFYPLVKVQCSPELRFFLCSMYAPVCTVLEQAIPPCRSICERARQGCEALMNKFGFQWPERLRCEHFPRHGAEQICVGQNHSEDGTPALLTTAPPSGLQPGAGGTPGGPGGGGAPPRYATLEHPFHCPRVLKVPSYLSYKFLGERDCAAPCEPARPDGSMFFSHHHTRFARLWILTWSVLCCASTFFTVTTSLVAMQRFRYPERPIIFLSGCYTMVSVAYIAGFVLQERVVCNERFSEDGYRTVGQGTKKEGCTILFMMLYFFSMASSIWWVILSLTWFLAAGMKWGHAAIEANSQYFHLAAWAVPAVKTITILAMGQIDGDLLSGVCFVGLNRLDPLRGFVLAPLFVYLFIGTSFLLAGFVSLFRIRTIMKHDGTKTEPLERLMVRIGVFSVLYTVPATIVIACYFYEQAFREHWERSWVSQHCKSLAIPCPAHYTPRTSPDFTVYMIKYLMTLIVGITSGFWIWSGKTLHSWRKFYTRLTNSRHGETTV
Sequence of Frizzled-5 (Homo sapiens) (Q13467 whole entry): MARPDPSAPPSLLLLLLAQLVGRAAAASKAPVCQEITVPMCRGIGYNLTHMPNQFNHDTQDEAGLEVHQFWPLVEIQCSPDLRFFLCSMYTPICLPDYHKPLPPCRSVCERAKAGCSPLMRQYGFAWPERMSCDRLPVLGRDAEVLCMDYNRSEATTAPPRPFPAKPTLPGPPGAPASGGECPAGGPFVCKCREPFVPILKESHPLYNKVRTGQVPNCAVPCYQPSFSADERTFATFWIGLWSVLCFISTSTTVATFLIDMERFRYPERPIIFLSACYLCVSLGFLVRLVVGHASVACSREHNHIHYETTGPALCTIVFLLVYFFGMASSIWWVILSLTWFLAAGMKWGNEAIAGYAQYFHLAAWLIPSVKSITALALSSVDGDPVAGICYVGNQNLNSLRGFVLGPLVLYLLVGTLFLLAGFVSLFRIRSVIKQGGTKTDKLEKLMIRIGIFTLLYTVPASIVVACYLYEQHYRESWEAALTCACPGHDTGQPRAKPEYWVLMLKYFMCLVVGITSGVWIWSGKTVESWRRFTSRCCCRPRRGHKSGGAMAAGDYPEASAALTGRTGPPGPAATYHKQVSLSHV
Sequence of Frizzled-1 (Q08463 whole entry): as the sequence (Q08463 whole entry) above

## CSCC[C@@H]1NC(=O)CNC(=O)[C@H](CCC(=O)O)NC(=O)[C@H](CO)NC(=O)[C@H]([C@@H](C)O)NC(=O)[C@H](CCCCN)NC(=O)[C@H](CC(N)=O)NC(=O)[C@@H](NC(C)=O)CSSC[C@@H](C(=O)N[C@@H](CCC(=O)O)C(=O)N[C@@H](CC(C)C)C(N)=O)NC(=O)CNC(=O)[C@H](CC(=O)O)NC1=O (Ac-CNKTSEGMDGCEL-NH2; disulfide 1-11)
[1]
  Activity: inactive
[2]
  Activity: inactive

## CC[C@H](C)[C@H](NC(=O)CNC(C)=O)C(=O)N[C@@H](CCCCN)C(=O)N[C@@H](CCC(=O)O)C(=O)N[C@@H](CS)C(=O)N[C@@H](CCC(N)=O)C(=O)N[C@@H](Cc1ccc(O)cc1)C(=O)N[C@@H](CCC(N)=O)C(=O)N[C@@H](Cc1ccccc1)C(=O)N[C@@H](CCCNC(=N)N)C(=O)N[C@@H](Cc1c[nH]cn1)C(=O)N[C@@H](CCCNC(=N)N)C(=O)N[C@@H](CCCNC(=N)N)C(=O)N[C@@H](Cc1c[nH]c2ccccc12)C(=O)N[C@@H](CC(N)=O)C(=O)N[C@@H](CS)C(=O)N[C@@H](CO)C(=O)N[C@H](C(=O)N[C@H](C(=O)N[C@@H](CC(=O)O)C(N)=O)C(C)C)[C@@H](C)O (Ac-GIKECQYQFRHRRWNCSTVD-NH2)
[3]
  Activity: inactive
[4]
  Activity: inactive
[5]
  inhibition: 100%
[6]
  inhibition: 100%
[7]
  inhibition: 100%
[8]
  inhibition: 100%
[9]
  Activity: inactive
[10]
  inhibition: 100%
[11]
  Activity: inactive
[12]
  Activity: inactive
[13]
  Activity: inactive
[14]
  inhibition: 100%

## CC(=O)NCC(=O)N[C@@H](CO)C(=O)N[C@@H](CS)C(=O)N[C@@H](CO)C(=O)N[C@@H](CC(C)C)C(=O)N[C@@H](CCCCN)C(=O)N[C@H](C(=O)N[C@@H](CS)C(=O)N[C@@H](Cc1c[nH]c2ccccc12)C(=O)N[C@@H](CC(C)C)C(=O)N[C@@H](CCC(N)=O)C(=O)N[C@@H](CC(C)C)C(=O)N[C@@H](C)C(=O)N[C@@H](CC(=O)O)C(N)=O)[C@@H](C)O (Ac-GSCSLKTCWLQLAD-NH2)
[3]
  Activity: inactive
[4]
  Activity: inactive
[5]
  inhibition: 100%
[6]
  inhibition: 100%
[7]
  inhibition: 100%
[8]
  inhibition: 100%
Frizzled-1
  IC50: 2060 nM
[9]
  Activity: inactive
[10]
  inhibition: 100%
[11]
  Activity: inactive
[12]
  Activity: inactive
Frizzled-2
  IC50: 2110 nM
[13]
  Activity: inactive
[14]
  inhibition: 100%

## Ac-DLVYFELSPDFCA-NH2
[15]
  Activity: inactive
[16]
  inhibition: inactive
[17]
  Activity: inactive
[18]
  inhibition: inactive

## Ac-GDWEWGECSDNI-NH2
[15]
  Activity: inactive
[16]
  inhibition: inactive
[17]
  Activity: inactive
[18]
  inhibition: inactive

## Ac-GSKGTQGRACN-NH2
[15]
  Activity: inactive
[16]
  inhibition: inactive
[17]
  Activity: inactive
[18]
  inhibition: inactive

## Ac-MNRHNNEAGR-NH2
[15]
  Activity: inactive
[16]
  inhibition: inactive
[17]
  Activity: inactive
[18]
  inhibition: inactive
